The test system of data set [1] is Rhinovirus 7. The conditions noted are these: for Day 3 (cytopathic effect of RV 7 on WI 38 cells) / Day 5 (cytopathic effect of RV 7 on WI 38 cells) / Day 7 (cytopathic effect of RV 7 on WI 38 cells): 20 U GO/ml; for Incubation time for inactivation of rhinovirus: glucose oxidase 20 U/ml. The method, then: Virus: Rhinovirus 7, purchased from ATCC (VR-1117), was used as a representative for the rhinovirus group. In the assays the dilutions 10^−2 and 10^−3 were used. […] 0.3 ml of each dilution was added into the vials.
Cell culture: Human lung cell fibroblasts (WI 38, ATCC-CCL-75) was used for cytopathic effect detection. 10-fold serial dilutions had been made from the concentrated viral suspension. […] Then the media was changed to RPMI with 2% of fetal calf serum, which was preserved during the assay. The cells were incubated in CO2enriched air at 37° C. During the experiments a cell culture of 17th-18^thpassage was used.
Catalase: From Sigma-Aldrich™. A solution of 100 000 U/ml was prepared from the original solution of 10^6 U/ml.
H2O2: a 20% solution was diluted in Phosphate buffered saline (PBS) to a 0.5% and a 0.05% solution. 0.1 ml was added to the vials, which means 0.05% or 0.005% in the vials.
A solution of 200 U/ml and 600 U/ml was prepared from the original solution of 6000 U/ml.
In order to evaluate whether the effect of the hydrogen peroxide was a direct effect on the virus itself or a cytoprotective effect, we preincubated the virus with the hydrogen peroxide, before it was transferred to the wells with the cells. The WI 38 cells are also sensitive to hydrogen peroxide, and therefore it was necessary to add catalase before inoculation into the wells. […] This design would also reveal if the inhibitory effect was only a virostatic one, or if it could damage the virions irreversibly.
In table 1 the content of each of the 10 vials (Eppendorf) is listed. The vials were incubated in a heater keeping a stable temperature of 37° C. 1000 U of catalase was added after 15, 30 and 60 min of incubation. 2×50 μl from each vial was transferred to duplicate cell wells (a 96-well plate).
On the technique in general: Protection from cytopathic effect is a common read-out in antiviral testing.

In data set [2] the test system is Rhinovirus 7. The note with it: for Infection of WI 38 cells after 10 days of inoculation: 10 U GO + 5% glucose added after 2 days.
Data set [3] has as its system Rhinovirus 8. The note with it: for Infection of WI 38 cells after 10 days of inoculation: 10 U GO + 5% glucose added after 2 days.
Data set [4] has as its system Rhinovirus 7. As to the method:
(§1) Virus concentration=dil 2. Incubation during 30 min in heater keeping 37° C. After 30 min the effect of the hydrogen peroxide is aborted with the addition of 0.1 ml catalase solution into the vial (=1 kU/ml). • 0.7 ml 5% glucose solution+0.1 ml dil 1 of RV7 (=a7) or RV8 (=a8)+0.1 ml of the hydrogen peroxide solution (=final concentration in the vial=[…]). Incubation and abortion of the hydrogen peroxide effect similar as in a).
(§2) Altogether 4 vials (Eppendorff): a7, a8, b7 and b8.
(§3) After the addition of catalase, samples are transferred to a 96-well plate with flat bottom according to table 3.

The subject of data set [5] is Rhinovirus 8. The method, then:
as §1, §2, §3

The test system of a further data set is WI 38 cells. The method, then: as §1, §3
Setting [6] is: RV 7 dil 10^−2, preincubation 15 min.
[7] abbreviates: RV 7 dil 10^−2, preincubation 30 min.
Where [8] appears, read: RV 7 dil 10^−2, preincubation 60 min.
Setting [9] is: RV 7 dil 10^−3, preincubation 15 min.
The mark [10] stands for this setting: RV 7 dil 10^−3, preincubation 30 min.
Where [11] appears, read: RV 7 dil 10^−3, preincubation 60 min.
The mark [12] stands for this setting: Glucose Oxidase added into the wells 2 days after the initial incubation.
[13] abbreviates: 40 U/ml of Glucose Oxidase, high initial inoculate.
The mark [14] stands for this setting: 50 μl a7: RV7 dil 2 preincubated 30 min with 40 U/ml Glucose Oxidase, then catalase.
Where [15] appears, read: 50 μl a8: RV8 dil 2 preincubated 30 min with 40 U/ml Glucose Oxidase, then catalase.

Values joined by “and” are separate entries in the source; they are usually repeats but may differ in a detail not shown here. Equal values may be shown once. Read-outs that look alike come from different tables or passages of the source.

Consider Glucose oxidase [GO], for which the “GO concentration having an effect on the Rhinovirus infection” value in the data set with Rhinovirus 7 [1] is recorded as “less than 20 U/ml”. The “Day 3 (cytopathic effect of RV 7 on WI 38 cells)” value in the data set with Rhinovirus 7 [1] (setting [6]), with Rhinovirus 7 [1] (setting [7]), in the data set with Rhinovirus 7 [1] (setting [8]), with Rhinovirus 7 [1] (setting [9]), with Rhinovirus 7 [1] (setting [10]) and in the data set with Rhinovirus 7 [1] (setting [11]) was “−” throughout. The “Day 5 (cytopathic effect of RV 7 on WI 38 cells)” value in the data set with Rhinovirus 7 [1] (setting [6]), in the data set on Rhinovirus 7 [1] (setting [7]), with Rhinovirus 7 [1] (setting [8]), in the data set on Rhinovirus 7 [1] (setting [9]), with Rhinovirus 7 [1] (setting [10]) and in the data set with Rhinovirus 7 [1] (setting [11]) was “−” in each case. Moreover, the “Day 7 (cytopathic effect of RV 7 on WI 38 cells)” value in the data set on Rhinovirus 7 [1] (setting [6]), in the data set on Rhinovirus 7 [1] (setting [7]), in the data set with Rhinovirus 7 [1] (setting [8]), in the data set on Rhinovirus 7 [1] (setting [9]), in the data set with Rhinovirus 7 [1] (setting [10]) and with Rhinovirus 7 [1] (setting [11]) was “−” throughout. Besides, in the data set with Rhinovirus 7 [1] (20 U/ml of Glucose Oxidase), the “Amount of H2O2 produced by Glucose Oxidase, equivalent” value is “more than 0.005 % H2O2”. For the same molecule, the “Hydrogen peroxide concentration corresponding to the effective GO concentration” value in the data set with Rhinovirus 7 [1] (GO less than 20 U/ml) was “more than 10 mM”. Besides, the “Reversibility of the inactivation of RV 7” value in the data set on Rhinovirus 7 [1] (Glucose Oxidase or 0.05% hydrogen peroxide solution, 7 days of incubation, no sign of recovery) is “irreversible”. In addition, the “Glucose Oxidase concentration sufficient for complete inactivation of RV 7” value in the data set with Rhinovirus 7 [1] (WI 38 cells) is listed as 20 U/ml. The “Cytopathic effect in wells where Glucose Oxidase had been incubated with RV 7” value in the data set with Rhinovirus 7 [1] (after 5 days of incubation, even after only 15 min preincubation and higher RV 7 concentration) is “no cytopathic effect”. The “Incubation time for inactivation of rhinovirus” value in the data set on Rhinovirus 7 [1] is not above 30 min; in the data set with Rhinovirus 7 [1] (listed as glucose oxidase), “less than 30 minutes”. Besides, the “Infection of WI 38 cells after 10 days of inoculation” value with Rhinovirus 7 [2] (well E1, 50 μl RV7 dilution 2) was 2+; in the data set with Rhinovirus 7 [2] (well E3, 50 μl RV7 dilution 4) it was 0; in the data set on Rhinovirus 7 [2] (wells F9, E9, 10 μl RV7 dilution 1), 1+; in the data set with Rhinovirus 8 [3] (well E2, 50 μl RV8 dilution 2), 2+; in the data set on Rhinovirus 8 [3] (well E4, 50 μl RV8 dilution 4), 0; in the data set on Rhinovirus 8 [3] (wells D9, C9, 10 μl RV8 dilution 1), 2+ and 3+. Besides, the “Infection of WI 38 cells after 10 days of inoculation” value with Rhinovirus 7 [4] (setting [14]) and with Rhinovirus 8 [5] (setting [15]) was 0 each time. Besides, the “Spread of viral infection to other cells” value in the data set with Rhinovirus 7 [2] (setting [12]) and in the data set on Rhinovirus 8 [3] (setting [12]) was “could prevent the spread of viral infection” in each case. Further, the “Inactivation of RV 7” value in the data set on Rhinovirus 7 [4] (setting [13]) is “able to inactivate”. The “Infection of WI 38 cells after 2 days of inoculation” value in the data set on Rhinovirus 7 [4] (setting [14]) and with Rhinovirus 8 [5] (setting [15]) was 0 in each case. Further, in the data set with Rhinovirus 8 [5] (setting [13]), the “Inactivation of RV 8” value is reported as “able to inactivate”.

B1: Catalase: specific enzyme catalyzing the conversion of H2O2 into O2 and H2O; purified from human erythrocytes (protein, UniProt P04040 2-527, looked up)
Catalase: ADSRDPASDQMQHWKEQRAAQKADVLTTGAGNPVGDKLNVITVGPRGPLLVQDVVFTDEMAHFDRERIPERVVHAKGAGAFGYFEVTHDITKYSKAKVFEHIGKKTPIAVRFSTVAGESGSADTVRDPRGFAVKFYTEDGNWDLVGNNTPIFFIRDPILFPSFIHSQKRNPQTHLKDPDMVWDFWSLRPESLHQVSFLFSDRGIPDGHRHMNGYGSHTFKLVNANGEAVYCKFHYKTDQGIKNLSVEDAARLSQEDPDYGIRDLFNAIATGKYPSWTFYIQVMTFNQAETFPFNPFDLTKVWPHKDYPLIPVGKLVLNRNPVNYFAEVEQIAFDPSNMPPGIEASPDKMLQGRLFAYPDTHRHRLGPNYLHIPVNCPYRARVANYQRDGPMCMQDNQGGAPNYYPNSFGAPEQQPSALEHSIQYSGEVRRFNTANDDNVTQVRAFYVNVLNEEQRKRLCENIAGHLKDAQIFIQKKAVKNFTEVHPDYGSHIQALLDKYNAEKPKNAIHTFVQSGSHLAAREKANL
Turning to B1, in the data set with WI 38 cells, the “Effect on WI 38 cells after 2 days” value turned out to be 0 and the “Effect on WI 38 cells after 10 days” value was found to be 0.
